This note sets out measurements from PMC8329300, “X-ray crystallography reveals molecular recognition mechanism for sugar binding in a melibiose transporter MelB” (Communications Biology, 2021).

The experiment addresses T1, WT MelBSt (Salmonella typhimurium, UniProt P30878).
T1 construct: Cys scanning mutagenesis for the full-length MelBSt; His10 (C); made in house; host or cells: E. coli DW2
Kind of experiment: biochemical. In kind it is binding. The following applies: for IC50: IC50 of galactoside displacement on bound D2G, α-NPG, 10 μM D2G. As for the experimental part: Fig. 1 Functional characterizations. a [^3H] Melibiose transport time course with intact cells. […] Inset, melibiose fermentation assay. Transformants with DW2 strain were plated on MacConkey agar plates containing 30 mM melibiose as the sole carbohydrate source and pH sensor neutral red, and incubated at 37 °C for 16–18 h before imaging. Number of tests = 3, from different batch of cells or duplicate measurements from same batch of sample. b Ligand binding by Trp→dansyl galactoside (D^2G) FRET assay. Purified proteins at 1 μM concentration in 20 mM Tris-HCl, pH 7.5, 100 mM CholCl, 10% glycerol, and 0.03% UDM were subjected to steady-state fluorescence measurements as described in Methods. On the time-trace, 1.8 μL of 1 mM D^2G at 10 μM was added into 180 μL of protein solutions at 1-min point, followed by supplying 10 μL of 5 mM DDMB or 5 mM α-NPG to displace the bound D^2G. For testing Na^+ or Li^+ binding, they are added into the solution before displacement with the second sugar. The structure of DDMB or α-NPG is shown in a chair form, and the carbon positions are labeled. Glycosidic bonds are indicated by arrows. Both are α-galactosides containing a substituent at the anomeric carbon-1. The data were from duplicate measurements.
Steady-state fluorescence measurements were performed with an AMINCO-Bowman series 2 spectrometer with purified MelBSt at 1 μM in 20 mM Tris-HCl, pH 7.5, 100 mM CholCl, 10% glycerol, 0.03% UDM. Using an excitation wavelength at 290 nm, the emission intensity was recorded at 490 nm. On a time-trace, D^2G, NaCl or LiCl, then DDMB or α-NPG, were sequentially added into the protein solutions at a 1 min-interval. […] An identical volume of water was used for the control. The decrease in intensity after each addition of DDMB or α-NPG was corrected by the dilution effect and plotted as a function of the accumulated α-NPG concentrations or estimated DDMB concentrations. The 50% inhibitory concentration (IC50) was determined by fitting a hyperbolic function to the data (OriginPro 2020b). The final concentration of each detergent is estimated to be 234 μM, which is less than their CMC value for (DDMB, 295 μM).
Supplementary Figure 2. Determination of DDMB binding affinity to MelBSt. (a) Titration with DDMB or a-NPG. MelBSt in 20 mM Tris-HCl, pH 7.5, 100 mM CholCl, 10% glycerol, 0.03% UDM without (1) or with 100 mM NaCl (2) were added with D2G at 10 μM at 1-min time point as indicated by triangle symbols on the Trp®dansyl FRET time trace. Starting at the 2-min of time point, DDMB or a-NPG solution was supplemented consecutively at a 1-min interval into MelBSt solution till no change in fluorescence intensity reached as indicated in star symbols. DDM and UDM were used as negative controls. 1% DDM or UDM was titrated into the mixture, The […]
At 2-min time point, additions of galactosides were colored in pink, a-NPG in yellow, UDM in blue, DDM in light blue, water in gray traces, respectively. (b) IC50 determination. The intensity decrease at each titration were corrected by the dilution effect, and plotted as a function of the accumulated DDMB or α-NPG concentration. The 50% inhibitory concentration (IC50) was determined by fitting the data to a hyperbolic function (OriginPro 2020b). Results are presented in […]
(1 picture or pasted object on this page, not shown here)

T1 sequence (P30878 whole entry): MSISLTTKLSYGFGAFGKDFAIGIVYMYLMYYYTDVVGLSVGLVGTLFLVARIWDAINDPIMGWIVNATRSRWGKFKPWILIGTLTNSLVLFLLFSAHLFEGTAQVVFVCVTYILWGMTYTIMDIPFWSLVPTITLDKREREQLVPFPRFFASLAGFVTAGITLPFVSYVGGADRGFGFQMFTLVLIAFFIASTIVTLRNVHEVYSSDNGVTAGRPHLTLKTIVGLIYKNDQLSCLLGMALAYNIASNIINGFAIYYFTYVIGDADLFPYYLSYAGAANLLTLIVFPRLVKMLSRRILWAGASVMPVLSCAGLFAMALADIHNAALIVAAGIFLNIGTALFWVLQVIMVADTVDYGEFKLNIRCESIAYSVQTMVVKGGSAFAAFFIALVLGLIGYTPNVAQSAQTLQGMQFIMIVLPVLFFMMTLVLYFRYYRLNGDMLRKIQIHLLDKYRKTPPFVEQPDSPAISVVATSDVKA

As to `O=[N+]([O-])c1ccc(OC2OC(CO)C(O)C(O)C2O)cc1` [α-NPG, 4-nitrophenyl-α-D-galactopyranoside], the IC50 (commonly the point on the concentration scale where inhibition reaches its midpoint) by setting is: (Apo) 58.2 ± 11.5 µM; (Na+ (100 mM)) 23 ± 2.24 µM. Moreover, the “effect on Trp→D2G FRET of D2G-bound protein (displacement)” value (added to D2G-bound WT MelBSt) was “large decrease in fluorescent intensity”.
